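Dose response: 5 concentrations. Exposure: 48 h. Format: 96-well plates. Endpoint: linear interpolation; highest concentration if not reached. At the GI50, growth is halved.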 The source made the active and inactive calls. Rule as the data show it: active = GI50 up to about 1.1 µM and inactive = higher.
Legend:
Assay in all cases: inhibition of tumour cell growth, NCI panel, 48 h
[1] = tested on: 786-0
[2] = tested on: A498
[3] = tested on: ACHN
[4] = tested on: CCRF-CEM
[5] = tested on: COLO 205
[6] = tested on: DU-145
[7] = tested on: HCC 2998
[8] = tested on: Hs-578T
[9] = tested on: IGROV-1
[10] = tested on: MCF7
[11] = tested on: MDA-MB-231
[12] = tested on: OVCAR-3
[13] = tested on: OVCAR-4
[14] = tested on: SK-MEL-5
[15] = tested on: SK-OV-3
[16] = tested on: SNB-19
[17] = tested on: SR
[18] = tested on: SW-620
[19] = tested on: TK-10
[20] = tested on: XF498

Measured: GI50

COc1ccc(N2C(=O)[C@H]3CC(C)c4c([nH]c5ccccc45)[C@H]3C2=O)cc1 (stereo not given in full)
inactive: [1] 3.48 µM | [2] 8.15 µM | [3] 6.92 µM | [4] 2.49 µM | [5] 2.5 µM | [6] 4.7 µM | [7] 3.65 µM | [8] 1.88 µM | [9] 4.41 µM | [10] 2.25 µM | [11] 6.35 µM | [12] 1.87 µM | [13] 5.98 µM | [14] 2.31 µM | [15] 2.4 µM | [16] 5.66 µM | [17] 2.15 µM | [18] 2.87 µM | [19] 9.86 µM | [20] 4.76 µM

COC(=O)/C(=N\NC(N)=O)C(C(=O)C(=O)Nc1ccccc1C(=O)OC)c1nc2ccc(C(=O)c3ccccc3)cc2nc1O (stereo not given)
inactive: [1] > 100 µM | [2] > 100 µM | [3] > 100 µM | [4] > 100 µM | [7] > 100 µM | [9] > 100 µM | [12] > 100 µM | [13] > 100 µM | [14] > 100 µM | [15] > 100 µM | [16] > 100 µM | [17] > 100 µM | [18] > 100 µM | [19] > 100 µM | [20] > 100 µM
